The source made the active and inactive calls. No cut-off for these calls is given here.
Columns and labels:
LLC-PK1 [1] = experiment: Renoprotective activity against cisplatin-induced cytotoxicity in pig LLC-PK1 cells assessed as recovery of cell viability treated for 2 hrs and followed by challenged with cisplatin for 24 hrs by MTT assay; assay type: functional, cell-based; conditions: Sus scrofa
RAW264.7 = experiment: Suppression of LPS-induced NO production in mouse RAW264.7 cells treated for 2 hrs and followed by challenged with […] for 24 hrs by griess reagent; assay type: functional, cell-based
LLC-PK1 [2] = experiment: Renoprotective activity against cisplatin-induced cytotoxicity in pig LLC-PK1 cells assessed as recovery of cell viability at 25 to 125 uM treated for 2 hrs and followed by challenged with cisplatin for 24 hrs by MTT assay; assay type: functional, cell-based; conditions: Sus scrofa
LLC-PK1 [3] = experiment: Renoprotective activity against cisplatin-induced cytotoxicity in pig LLC-PK1 cells assessed as recovery of cell viability at 125 uM treated for 2 hrs and followed by challenged with cisplatin for 24 hrs by MTT assay; assay type: functional, cell-based; conditions: Sus scrofa
LLC-PK1 [4] = experiment: Renoprotective activity against cisplatin-induced apoptosis in pig LLC-PK1 cells assessed as reduction in cisplatin-induced phosphorylated p38 at 25 uM treated for 2 hrs and followed by challenged with cisplatin for 24 hrs by Western blot analysis; assay type: functional, cell-based; conditions: Sus scrofa
LLC-PK1 [5] = experiment: Renoprotective activity against cisplatin-induced apoptosis in pig LLC-PK1 cells assessed as reduction in cisplatin-induced phosphorylated JNK at 25 uM treated for 2 hrs and followed by challenged with cisplatin for 24 hrs by Western blot analysis; assay type: functional, cell-based; conditions: Sus scrofa
LLC-PK1 [6] = experiment: Renoprotective activity against cisplatin-induced apoptosis in pig LLC-PK1 cells assessed as reduction in cisplatin-induced phosphorylated ERK at 25 uM treated for 2 hrs and followed by challenged with cisplatin for 24 hrs by Western blot analysis; assay type: functional, cell-based; conditions: Sus scrofa
LLC-PK1 [7] = experiment: Renoprotective activity against cisplatin-induced apoptosis in pig LLC-PK1 cells assessed as reduction in cisplatin-induced dead and apoptotic cells at 25 uM treated for 2 hrs and followed by challenged with cisplatin for 24 hrs by annexin V/Tali image-based cytometry; assay type: functional, cell-based; conditions: Sus scrofa
LLC-PK1 [8] = experiment: Renoprotective activity against cisplatin-induced apoptosis in pig LLC-PK1 cells assessed as reduction in cisplatin-induced p53 level at 25 uM treated for 2 hrs and followed by challenged with cisplatin for 24 hrs by Western blot analysis; assay type: functional, cell-based; conditions: Sus scrofa
LLC-PK1 [9] = experiment: Renoprotective activity against cisplatin-induced apoptosis in pig LLC-PK1 cells assessed as reduction in cisplatin-induced cleaved caspase-3 at 25 uM treated for 2 hrs and followed by challenged with cisplatin for 24 hrs by Western blot analysis; assay type: functional, cell-based; conditions: Sus scrofa
LLC-PK1 [10] = experiment: Renoprotective activity against cisplatin-induced cytotoxicity in pig LLC-PK1 cells assessed as recovery of cell viability at 2 to 25 uM treated for 2 hrs and followed by challenged with cisplatin for 24 hrs by MTT assay; assay type: functional, cell-based; conditions: Sus scrofa
LLC-PK1 [11] = experiment: Reduction in cisplatin-induced MAPK phosphorylation in pig LLC-PK1 cells at 25 uM treated for 2 hrs and followed by challenged with cisplatin for 24 hrs by Western blot analysis; assay type: cell-based; conditions: Sus scrofa
LLC-PK1 [12] = experiment: Renoprotective activity against cisplatin-induced cytotoxicity in pig LLC-PK1 cells assessed as recovery of cell viability at 25 uM treated for 2 hrs and followed by challenged with cisplatin for 24 hrs by MTT assay; assay type: functional, cell-based; conditions: Sus scrofa

Row | SMILES | Activity (LLC-PK1 [1]) | inhibition (RAW264.7) | Activity (LLC-PK1 [2]) | Activity (LLC-PK1 [3]) | Activity (LLC-PK1 [4]) | Activity (LLC-PK1 [5]) | Activity (LLC-PK1 [6]) | Activity (LLC-PK1 [7]) | Activity (LLC-PK1 [8]) | Activity (LLC-PK1 [9]) | Activity (LLC-PK1 [10]) | inhibition (LLC-PK1 [11]) | Activity (LLC-PK1 [12])
1 | COc1ccc(C(=O)/C=C/c2cc(OC)c(Br)c(OC)c2)cc1OC | Dose-dependent effect | Dose-dependent effect | inactive |  |  |  |  |  |  |  |  |  | 
2 | Cc1ccc(/C=C/C(=O)c2ccc(Cl)cc2)cc1 | Dose-dependent effect | Dose-dependent effect |  | Active |  |  |  |  |  |  |  |  | 
3 | COc1cccc(C(=O)/C=C/c2ccc(Cl)cc2)c1 | Dose-dependent effect | Dose-dependent effect |  |  | Active | Active | Active | Active | Active | Active |  |  | 
4 | COc1ccc(/C=C/C(=O)c2ccc(Br)cc2)cc1OC | Dose-dependent effect | Dose-dependent effect |  | Active |  |  |  |  |  |  |  |  | 
5 | COc1cc(Br)c(/C=C/C(=O)c2ccc(Br)cc2)cc1OC | Dose-dependent effect | Dose-dependent effect |  |  | Active | Active | Active | Active | Active | Active | Active | Active | Active
6 | COc1cccc(C(=O)/C=C/c2cc(OC)c(OC)cc2Br)c1 | Dose-dependent effect | Dose-dependent effect |  |  |  |  |  |  |  |  |  |  | 

— ChEMBL document CHEMBL3399998, “Synthesis and biological evaluation of chalcone analogues as protective agents against cisplatin-induced cytotoxicity in kidney cells” (Bioorg Med Chem Lett, 2015)
